Test results from the supplement of paper PMC10307832.

How the values were obtained:
Experiment in all cases: relative viability (nuclei count vs DMSO), 5 days (fraction); higher = more cells survive
[1] = compound: C1COCCN1C2=CC(=O)C3=C(O2)C(=CC=C3)C4=CC=CC5=C4SC6=CC=CC=C56
Procedure, shortened: (§1)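 Lung cancer cell lines received five library-drug doses (not always all listed) spaced by √10, pinned on vehicle-anchored 1536-well plates after an overnight stay at 37 °C. Five days later, with no medium change, nuclei were Hoechst-stained, imaged at 4× and counted with MetaXpress. Viability is treated-well nuclei relative to vehicle-well nuclei, as a median across plates. Passing plates had control CV below 25% and at least one doubling.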

[2] = compound: CCN(CC)CCCCNc1ncc2cc(-c3cc(OC)cc(OC)c3)c(NC(=O)NC(C)(C)C)nc2n1
Procedure, shortened: as §1

PRIMA-1MET = compound: COCC1(CO)C(=O)C2CCN1CC2 [PRIMA-1MET]
Procedure, shortened: as §1

Zibotentan = compound: COc1nc(C)cnc1NS(=O)(=O)c1cccnc1-c1ccc(-c2nnco2)cc1 [Zibotentan]
Procedure, shortened: as §1

[3] = compound: O=c1cc(-c2cccc3c2Sc2ccccc2S3)oc(N2CCOCC2)c1
Procedure, shortened: as §1

| Cell Line | relative viability ([1]; 0.01 µM) | relative viability ([1]; 0.03162 µM) | relative viability ([1]; 0.1 µM) | relative viability ([1]; 0.3162 µM) | relative viability ([1]; 1 µM) | relative viability ([2]; 0.01 µM) | relative viability ([2]; 0.03162 µM) | relative viability ([2]; 0.1 µM) | relative viability ([2]; 0.3162 µM) | relative viability ([2]; 1 µM) | relative viability (PRIMA-1MET; 0.2 µM) | relative viability (PRIMA-1MET; 0.6325 µM) | relative viability (PRIMA-1MET; 2 µM) | relative viability (PRIMA-1MET; 6.325 µM) | relative viability (PRIMA-1MET; 20 µM) | relative viability (Zibotentan; 0.08 µM) | relative viability (Zibotentan; 0.253 µM) | relative viability (Zibotentan; 0.8 µM) | relative viability (Zibotentan; 2.53 µM) | relative viability ([3]; 0.08 µM) | relative viability ([3]; 0.253 µM) | relative viability ([3]; 0.8 µM) | relative viability ([3]; 2.53 µM) | relative viability ([3]; 8 µM) |
| --- | --- | --- | --- | --- | --- | --- | --- | --- | --- | --- | --- | --- | --- | --- | --- | --- | --- | --- | --- | --- | --- | --- | --- | --- |
| NCI-H1437 | 0.955 | 0.98 | 1.02 | 1.05 | 0.959 | 1.08 | 0.979 | 1.08 | 1.11 | 0.945 | 1.03 | 0.859 | 0.971 | 1 | 0.96 | 1.02 | 0.882 | 0.964 | 0.995 | 1.01 | 1.16 | 1.11 | 0.918 | 1.18 |
| NCI-H1355 | 0.991 | 1.04 | 0.74 | 1.03 | 0.928 | 1.08 | 0.938 | 1.04 | 1.11 | 0.939 | 0.955 | 0.908 | 0.894 | 0.973 | 0.927 | 1 | 0.984 | 0.955 | 1 | 0.955 | 1.13 | 0.837 | 0.904 | 0.953 |
| NCI-H1755 | 1.03 | 1.01 | 0.986 | 0.994 | 0.985 | 1.04 | 1.05 | 1.08 | 1.1 | 1.01 | 1.04 | 0.928 | 0.85 | 1.07 | 0.999 | 0.972 | 0.987 | 0.926 | 0.977 | 0.96 | 1.03 | 1.05 | 1.06 | 1.05 |
| NCI-H2228 | 1.25 | 0.89 | 0.981 | 0.821 | 1.03 | 0.984 | 1.06 | 1.26 | 1.16 | 0.941 | 0.99 | 0.964 | 1.07 | 1.06 | 0.0562 | 1.09 | 0.997 | 0.956 | 0.994 | 1.04 | 1.09 | 1.02 | 1.07 | 1.1 |
| NCI-H1792 | 0.939 | 0.99 | 0.908 | 0.91 | 0.868 | 0.979 | 0.976 | 1.04 | 1.25 | 0.521 | 0.923 | 0.804 | 0.677 | 0.924 | 0.778 | 0.998 | 0.763 | 0.879 | 0.943 | 0.904 | 1.06 | 0.783 | 0.864 | 0.863 |
| NCI-H661 | 0.965 | 1.01 | 0.98 | 0.991 | 0.969 | 1.06 | 1 | 1.03 | 1.09 | 0.993 | 1.03 | 0.917 | 0.991 | 1 | 0.957 | 1.01 | 0.912 | 0.951 | 0.987 | 0.996 | 1 | 0.948 | 0.942 | 0.951 |
| NCI-H1648 | 0.861 | 1.03 | 1.14 | 0.932 | 0.959 | 1.02 | 1.16 | 0.927 | 0.656 | 0.544 | 0.852 | 0.715 | 1.07 | 0.722 | 0.75 | 1.04 | 0.786 | 0.84 | 0.932 | 0.742 | 1.16 | 0.792 | 0.591 | 0.921 |
| NCI-H2023 | 1.05 | 1.1 | 1.04 | 0.973 | 0.908 | 0.914 | 1.09 | 1.16 | 1.05 | 0.854 | 1.3 | 0.888 | 0.955 | 0.97 | 0.826 | 1.06 | 0.794 | 0.899 | 1 | 0.923 | 1.12 | 0.972 | 0.865 | 0.888 |
| NCI-H520 | 1.08 | 1.06 | 0.98 | 1.02 | 0.955 | 0.962 | 1 | 0.965 | 0.763 | 0.306 | 1.09 | 0.722 | 0.678 | 0.817 | 0.163 | 1.14 | 0.924 | 0.801 | 1.15 | 0.95 | 1.2 | 1.12 | 0.906 | 0.997 |
| SK-LU-1 | 1.05 | 1.13 | 0.92 | 1.07 | 1.04 | 1.05 | 0.991 | 1.24 | 1.27 | 0.952 | 1.16 | 1.06 | 0.801 | 1.13 | 0.837 | 1.01 | 1.04 | 1.02 | 1.08 | 1.14 | 1.14 | 1.3 | 0.97 | 1.13 |
| NCI-H1666 | 0.996 | 0.959 | 1.01 | 1.02 | 0.953 | 0.942 | 0.993 | 1 | 1.17 | 0.973 | 0.993 | 0.868 | 0.962 | 0.938 | 0.942 | 1.02 | 0.879 | 1.03 | 1.06 | 0.94 | 1.09 | 1.02 | 0.911 | 1 |
| NCI-H838 | 1.04 | 0.966 | 0.98 | 0.99 | 0.893 | 0.99 | 0.971 | 1.01 | 0.97 | 0.643 | 1.05 | 0.946 | 0.841 | 1.08 | 0.659 | 0.962 | 0.87 | 0.987 | 0.998 | 0.979 | 1.09 | 0.862 | 0.947 | 0.887 |
